Measured values from US10584154B2, “Vesicles comprising lectins expressed on the surface and methods of use thereof to deliver an agent to autophagic and apoptotic cells” (TZU CHI UNIVERSITY, priority 2017, dated 2020).

How the values were obtained:
[1] = test system: autophagy cells (mouse B16-F10 cells suspended for 4 hours); experiment: Blocking of liposomes targeting to autophagy cells (flow cytometry); format: cell-based; conditions: M6PR+P-selectin, M6PR+PSGL-1 groups
Description: (§1) The mouse B16-F10 cells were suspended for 4 hours to induce autophagy and apoptosis. The autophagy and apoptosis cell were labeled with green fluorescent dyes (GFDs), using Cyto-ID autophagy detection kit (Enzo Life Sciences) (see FIG. 1 and FIG. 3) and CaspGLOW™ Red Active Caspase-3 Staining Kit (BioVision) (see FIG. 2 and FIG. 4) kits, respectively. The autophagy and apoptosis cell containing populations were engaged with various protein conjugated liposomes, which were labeled with fluorescent dye calcein-red (CR). The percentage of B16-F10-liposome engaged populations (GFD and CR double positive populations) were determined using flow cytometry. The levels of liposomes and fluorescent beads engaged with none conjugated cells (the “unconjugated” groups) were normalized to 100% (see FIG. 1 and FIG. 2).
(§2) The mouse B16-F10 cells were suspended for 4 hours and then treated with blocking antibody or soluble M6PR recombinant protein plus additional M6PR+P-selectin-conjugated liposomes. The autophagy and apoptosis cell were labeled with green fluorescent dyes (GFDs), using Cyto-ID autophagy detection kit (Enzo Life Sciences) and CaspGLOW™ Red Active Caspase-3 Staining Kit (BioVision) kits, respectively. […] The percentage of B16-F10-liposome engaged populations (GFD and CR double positive populations) were determined using flow cytometry. […]

[2] = test system: apoptotic cells (mouse B16-F10 cells suspended for 4 hours); experiment: Blocking of liposomes targeting to apoptotic cells (flow cytometry); format: cell-based; conditions: M6PR+P-selectin, M6PR+PSGL-1 groups
Description: as §1, §2

Q: Which “antidote: blocking of P-selectin, E-selectin and PSGL-1-conjugated liposomes targeting to autophagy cells” value [1] does the source give for sialyl-lewis x oligosaccharide here?
A: Its value is “able to serve as the antidotes”.

Q: What about the “antidote: blocking of P-selectin, E-selectin and PSGL-1-conjugated liposomes targeting to apoptotic cells” value [2] of the same substance?
A: The value was “able to serve as the antidotes”.
